Consider two molecules from ChEMBL document CHEMBL3603789, “N-Lipidated Peptide Dimers: Effective Antibacterial Agents against Gram-Negative Pathogens through Lipopolysaccharide Permeabilization” (J Med Chem, 2015).

Usually MIC stands for the smallest concentration in the dilution series that meets the test's criterion for growth inhibition. The low end stands for greater potency, the high end for weaker potency. Usually EC50 stands for the concentration needed to bring the measured effect to its halfway point.

Values after ≈ are worked out from the molar mass of the structure shown. Active and inactive are the calls of the source. Bridge positions count the residues as written; N and C are the ends. Peptide text beside a SMILES is read from it. I, II: the chains in the order shown. * marks the point of attachment. Hexanoyl = CCCCCC(=O)*

Data set [1] has as its system Escherichia coli. The data set can be described thus: Antibacterial activity against Escherichia coli ATCC 25922 after 24 hrs by broth microdilution method. The format is functional. To be noted: ATCC 25922, 24 h. (In general: Broth dilution looks for growth in wells or tubes with falling amounts of substance.)
Data set [2] has as its system Klebsiella pneumoniae. Kind of data set: Antibacterial activity against Klebsiella pneumoniae DS07955 after 24 hrs by broth microdilution method. The format is functional. As to conditions: DS07955, 24 h.
For data set [3], the system named is Pseudomonas aeruginosa. The data set can be described thus: Antibacterial activity against Pseudomonas aeruginosa DM23155 after 24 hrs by checkerboard assay in presence of gentamicin. Type of data set: functional.
Data set [4] has as its system Pseudomonas aeruginosa. The data set can be described thus: Antibacterial activity against Pseudomonas aeruginosa DM23155 after 24 hrs by checkerboard assay in presence of nalidixic acid. Type of data set: functional.
Data set [5] concerns Escherichia coli. Kind of data set: Antibacterial activity against Escherichia coli DM17528 after 24 hrs by broth microdilution method. Type of data set: functional. To be noted: DM17528, 24 h.
In data set [6] the test system is Klebsiella pneumoniae. The data set can be described thus: Antibacterial activity against Klebsiella pneumoniae DM4299 after 24 hrs by broth microdilution method. The format is functional. To be noted: DM4299, 24 h.
For data set [7], the system named is Klebsiella pneumoniae. The data set can be described thus: Antibacterial activity against Klebsiella pneumoniae DU31158 after 24 hrs by broth microdilution method. Type of data set: functional. As to conditions: DU31158, 24 h.
Data set [8] deals with Escherichia coli. The data set can be described thus: Antibacterial activity against Escherichia coli ATCC 25922 after 24 hrs by checkerboard assay in presence of kanamycin. The format is functional.
The test system of data set [9] is Klebsiella pneumoniae. Kind of data set: Antibacterial activity against Klebsiella pneumoniae DB55301 after 24 hrs by broth microdilution method. Type of data set: functional. As to conditions: DB55301, 24 h.
Data set [10] has as its system Escherichia coli. Kind of data set: Antibacterial activity against Escherichia coli ATCC 25922 after 24 hrs by checkerboard assay in presence of gentamicin. Type of data set: functional.
The test system of data set [11] is Pseudomonas aeruginosa. The data set can be described thus: Induction of cytoplasmic membrane disruption in Pseudomonas aeruginosa DM23155 assessed as membrane integrity at 1 to 2 times MIC after 1 hr by fluorescence assay. Type of data set: functional.
The test system of data set [12] is Escherichia coli. The data set can be described thus: Antibacterial activity against Escherichia coli DS17232 after 24 hrs by broth microdilution method. Type of data set: functional. To be noted: DS17232, 24 h.
Data set [13] relates to Lipopolysaccharide (LPS). Kind of data set: Displacement of dansylcadaverine from Escherichia coli 0111:B4 LPS at 15 to 30 uM after 5 mins by high-throughput fluorescence displacement assay.
Data set [14] relates to Pseudomonas aeruginosa. Kind of data set: Antibacterial activity against Pseudomonas aeruginosa DM23155 after 24 hrs by checkerboard assay in presence of streptomycin. The format is functional.
Data set [15] in a line: Toxicity in New Zealand white rabbit erythrocytes assessed as hemolytic activity after 60 mins. Type of data set: cell-based, Oryctolagus cuniculus. As to conditions: erythrocyte, 1 h.
Data set [16] in a line: Induction of calcein leakage from DOPE/DOPG artificial membrane at 1:32 ratio of compound to lipid by fluorescence assay. Type of data set: physicochemical.
For data set [17], the system named is Klebsiella pneumoniae. The data set can be described thus: Antibacterial activity against Klebsiella pneumoniae DS16260 after 24 hrs by broth microdilution method. Type of data set: functional. As to conditions: DS16260, 24 h.
The subject of data set [18] is Escherichia coli. The data set can be described thus: Antibacterial activity against Escherichia coli ATCC 25922 after 24 hrs by checkerboard assay in presence of erythromycin. The format is functional.
Data set [19] relates to Pseudomonas aeruginosa. Kind of data set: Antibacterial activity against Pseudomonas aeruginosa DM23155 after 24 hrs by checkerboard assay in presence of erythromycin. Type of data set: functional.
In data set [20] the test system is Pseudomonas aeruginosa. Kind of data set: Antibacterial activity against Pseudomonas aeruginosa DM23155 after 24 hrs by broth microdilution method. To be noted: DM23155, 24 h. Type of data set: functional.
In data set [21] the test system is Escherichia coli. Kind of data set: Antibacterial activity against Escherichia coli ATCC 25922 after 24 hrs by checkerboard assay in presence of nalidixic acid. The format is functional.
The test system of data set [22] is Lipopolysaccharide (LPS). Kind of data set: Induction of Escherichia coli 0111:B4 LPS neutralization using p-nitroaniline assessed as concentration required to neutralize 50% after 1 hr by limulus amebocyte lysate assay.
Data set [23] relates to Escherichia coli. Kind of data set: Antibacterial activity against Escherichia coli ATCC 25922 after 24 hrs by checkerboard assay in presence of streptomycin. Type of data set: functional.
In data set [24] the test system is Pseudomonas aeruginosa. Kind of data set: Antibacterial activity against Pseudomonas aeruginosa DM23155 after 24 hrs by checkerboard assay in presence of kanamycin. Type of data set: functional.
The test system of data set [25] is Pseudomonas aeruginosa. Kind of data set: Antibacterial activity against Pseudomonas aeruginosa DM23257 after 24 hrs by broth microdilution method. As to conditions: DM23257, 24 h. The format is functional.
Data set [26] has as its system Pseudomonas aeruginosa. The data set can be described thus: Antibacterial activity against Pseudomonas aeruginosa DR5790 after 24 hrs by broth microdilution method. The format is functional. To be noted: DR5790, 24 h.
Data set [27] deals with Pseudomonas aeruginosa. Kind of data set: Antibacterial activity against Pseudomonas aeruginosa ATCC 27853 after 24 hrs by broth microdilution method. The format is functional. To be noted: ATCC 27853, 24 h.
Data set [28] concerns Pseudomonas aeruginosa. The data set can be described thus: Antibacterial activity against Pseudomonas aeruginosa DU14476 after 24 hrs by broth microdilution method. Type of data set: functional. As to conditions: DU14476, 24 h.
The test system of data set [29] is Pseudomonas aeruginosa. The data set can be described thus: Antibacterial activity against Pseudomonas aeruginosa ATCC 9027 after 24 hrs by broth microdilution method. The format is functional. As to conditions: ATCC 9027, 24 h.
The test system of data set [30] is Pseudomonas aeruginosa. Kind of data set: Antibacterial activity against Pseudomonas aeruginosa DR4877 after 24 hrs by broth microdilution method. Type of data set: functional. As to conditions: DR4877, 24 h.
The subject of data set [31] is Pseudomonas aeruginosa. The data set can be described thus: Antibacterial activity against Pseudomonas aeruginosa DM23376 after 24 hrs by broth microdilution method. Type of data set: functional. As to conditions: DM23376, 24 h.
Data set [32] has as its system Pseudomonas aeruginosa. The data set can be described thus: Antibacterial activity against Pseudomonas aeruginosa DM23155 assessed as log reduction of viable count at 2 times MIC after 30 mins by time-kill assay relative to control. The format is functional.
For data set [33], the system named is Pseudomonas aeruginosa. The data set can be described thus: Antibacterial activity against Pseudomonas aeruginosa DR18531 after 24 hrs by broth microdilution method. As to conditions: DR18531, 24 h. Type of data set: functional.
The subject of data set [34] is Pseudomonas aeruginosa. Kind of data set: Antibacterial activity against Pseudomonas aeruginosa DM4150R after 24 hrs by broth microdilution method. The format is functional.

For the molecule `CCCCCC(=O)N[C@@H](CCCNC(=N)N)C(=O)NCC(=O)N[C@@H](CCCNC(=N)N)C(=O)N[C@@H](CCCCN)C(=O)N[C@H](C(=O)N[C@H](C(=O)N[C@@H](CCCNC(=N)N)C(=O)N[C@@H](CCCNC(=N)N)C(=O)NCCCC[C@H](NC(=O)[C@H](CCCNC(=N)N)NC(=O)[C@H](CCCNC(=N)N)NC(=O)[C@@H](NC(=O)[C@@H](NC(=O)[C@H](CCCCN)NC(=O)[C@H](CCCNC(=N)N)NC(=O)CNC(=O)[C@H](CCCNC(=N)N)NC(=O)CCCCC)C(C)C)C(C)C)C(=O)N[C@@H](CCCCN)C(=O)O)C(C)C)C(C)C` (I: Hexanoyl-RGRKVVRRKK-OH / II: Hexanoyl-RGRKVVRR; amide I:9-II:C), the MIC amounted to 3 µM (≈ 7.46 µg/mL) in the data set on Escherichia coli [1]; 10 µM (≈ 24.9 µg/mL) against Klebsiella pneumoniae [2]; 10 µM (≈ 24.9 µg/mL) against Escherichia coli [5]; 6 µM (≈ 14.9 µg/mL) against Klebsiella pneumoniae [6]; 10 µM (≈ 24.9 µg/mL) with Klebsiella pneumoniae [7]; 10 µM (≈ 24.9 µg/mL) against Klebsiella pneumoniae [9]. For the same molecule, the MIC with Escherichia coli [12] was 10 µM (≈ 24.9 µg/mL); against Klebsiella pneumoniae [17] it was 3 µM (≈ 7.46 µg/mL); with Pseudomonas aeruginosa [20] it was 6 µM (≈ 14.9 µg/mL). For the same molecule, the “fractional inhibitory concentration index (FICI)” value in the data set on Pseudomonas aeruginosa [3] is recorded as 0.25; with Pseudomonas aeruginosa [4], 0.38; in the data set with Escherichia coli [8] it was 0.5; in the data set with Escherichia coli [10], 0.38; in the data set with Pseudomonas aeruginosa [14], 0.38; in the data set on Escherichia coli [18], 0.38. For the same molecule, the “fractional inhibitory concentration index (FICI)” value in the data set with Pseudomonas aeruginosa [19] came to 0.38; in the data set on Escherichia coli [21], 0.5; in the data set with Escherichia coli [23], 0.38; in the data set on Pseudomonas aeruginosa [24] it was 0.31. The Activity in the data set with Pseudomonas aeruginosa [11] is >80%; with Lipopolysaccharide (LPS) [13], 100%; in data set [16], “Active”. The HC10 in data set [15] was > 10000 µg/mL. The EC50 in the data set on Lipopolysaccharide (LPS) [22] came out at 187 µM.

As to `CC(C)[C@H](NC(=O)[C@H](CCCCN)NC(=O)[C@H](CCCNC(=N)N)NC(=O)CNC(=O)[C@@H](N)CCCNC(=N)N)C(=O)N[C@H](C(=O)N[C@@H](CCCNC(=N)N)C(=O)N[C@@H](CCCNC(=N)N)C(=O)NCCCC[C@H](NC(=O)[C@H](CCCNC(=N)N)NC(=O)[C@H](CCCNC(=N)N)NC(=O)[C@@H](NC(=O)[C@@H](NC(=O)[C@H](CCCCN)NC(=O)[C@H](CCCNC(=N)N)NC(=O)CNC(=O)[C@@H](N)CCCNC(=N)N)C(C)C)C(C)C)C(=O)N[C@@H](CCCCN)C(=O)O)C(C)C` (I: H-RGRKVVRRKK-OH / II: H-RGRKVVRR; amide I:9-II:C), the MIC in the data set with Pseudomonas aeruginosa [25] turned out to be 3 µM (≈ 6.87 µg/mL); against Escherichia coli [1], 3 µM (≈ 6.87 µg/mL); in the data set with Klebsiella pneumoniae [6], 6 µM (≈ 13.7 µg/mL); against Pseudomonas aeruginosa [26] it was 10 µM (≈ 22.9 µg/mL); in the data set on Pseudomonas aeruginosa [27], 6 µM (≈ 13.7 µg/mL); against Pseudomonas aeruginosa [28], 6 µM (≈ 13.7 µg/mL). Moreover, the MIC against Pseudomonas aeruginosa [29] turned out to be 6 µM (≈ 13.7 µg/mL); in the data set with Pseudomonas aeruginosa [30], 6 µM (≈ 13.7 µg/mL); against Pseudomonas aeruginosa [31], 6 µM (≈ 13.7 µg/mL); against Pseudomonas aeruginosa [20], 6 µM (≈ 13.7 µg/mL); in the data set on Pseudomonas aeruginosa [33], 3 µM (≈ 6.87 µg/mL); in the data set on Pseudomonas aeruginosa [34], 3 µM (≈ 6.87 µg/mL). Also, the Activity with Pseudomonas aeruginosa [11] was >80%; in the data set with Lipopolysaccharide (LPS) [13], 82.4%; in data set [16], “Active”. Moreover, the HC10 in data set [15] is > 10000 µg/mL. Further, in the data set with Pseudomonas aeruginosa [32], the result was inactive. The EC50 in the data set with Lipopolysaccharide (LPS) [22] was > 1000 µM.
